PubChem BioAssay AID248 (DTP/NCI, 2004)
Where “and” joins values, the source holds several entries; their conditions need not be identical. Equal entries are not always repeated. Toxic doses and inconclusive results are not listed.

Tested on: L1210 leukemia ip in BDF1 mice, survival T/C
Assay: NCI In Vivo Anticancer Drug Screen. Data for tumor model L1210 Leukemia (intraperitoneal) in B6D2F1 (BDF1) mice
Settings: endpoint: mean survival time, higher = longer survival
In short: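 Value reflects the ratio of survival in compound-treated mice to survival in vehicle-treated controls, with both groups carrying the same transplanted tumor.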

[1] = dose: 150.0 mg/kg/injection, schedule: Q01DX001 (ip), vehicle: other
[2] = dose: 100.0 mg/kg/injection, schedule: Q04DX003 (ip), vehicle: saline
[3] = dose: 200.0 mg/kg/injection, schedule: Q04DX003 (ip), vehicle: saline
[4] = dose: 400.0 mg/kg/injection, schedule: Q04DX003 (ip), vehicle: saline
[5] = dose: 100.0 mg/kg/injection, schedule: Q04DX003 (ip), vehicle: saline with Tween-80
[6] = dose: 200.0 mg/kg/injection, schedule: Q04DX003 (ip), vehicle: saline with Tween-80
[7] = dose: 400.0 mg/kg/injection, schedule: Q04DX003 (ip), vehicle: saline with Tween-80
[8] = dose: 100.0 mg/kg/injection, schedule: Q01DX009 (ip), vehicle: Klucel (hydroxypropylcellulose) (HPC)
[9] = dose: 200.0 mg/kg/injection, schedule: Q01DX009 (ip), vehicle: Klucel (hydroxypropylcellulose) (HPC)
[10] = dose: 400.0 mg/kg/injection, schedule: Q01DX009 (ip), vehicle: Klucel (hydroxypropylcellulose) (HPC)
[11] = dose: 100.0 mg/kg/injection, schedule: Q04DX003 (ip), vehicle: Klucel (hydroxypropylcellulose) (HPC)
[12] = dose: 75.0 mg/kg/injection, schedule: Q01DX001 (ip), vehicle: saline

O=C(COc1ccc(Cl)cc1Cl)OCCBr
T/C (dose: 100.0 mg/kg/injection, schedule: Q04DX002 (ip), vehicle: other): 96 % of control
T/C (dose: 200.0 mg/kg/injection, schedule: Q04DX002 (ip), vehicle: other): 118 % of control
T/C (dose: 400.0 mg/kg/injection, schedule: Q04DX002 (ip), vehicle: other): 93 % of control

CN1CCCCC1CCN1c2ccccc2Sc2ccc(Cl)cc21 (stereo not given)
T/C (dose: 3.12 mg/kg/injection, schedule: Q01DX009 (ip), vehicle: saline): 96 % of control
T/C (dose: 6.25 mg/kg/injection, schedule: Q01DX009 (ip), vehicle: saline): 97 % of control
T/C (dose: 12.5 mg/kg/injection, schedule: Q01DX009 (ip), vehicle: saline): 100 % of control
T/C (dose: 25.0 mg/kg/injection, schedule: Q01DX009 (ip), vehicle: saline): 97 % of control

O=C(C[n+]1c(Cl)ccc2ccccc21)c1ccccc1
T/C (dose: 75.0 mg/kg/injection, schedule: Q01DX001 (ip), vehicle: other): 94 % of control
T/C [1]: 100 % of control

CC(C)N(C(=O)C1C2CCC(CC2)C1C(=O)N(C(C)C)C(C)C)C(C)C (stereo not given)
T/C [2]: 100 % of control
T/C [3]: 100 % of control
T/C [4]: 100 % of control

O=C(O)CNC(=O)c1ccc([N+](=O)[O-])cc1
T/C (dose: 100.0 mg/kg/injection, schedule: Q01DX009 (ip), vehicle: saline with Tween-80): 92 % of control
T/C [5]: 103 % of control
T/C (dose: 200.0 mg/kg/injection, schedule: Q01DX009 (ip), vehicle: saline with Tween-80): 92 % of control
T/C [6]: 98 % of control
T/C (dose: 400.0 mg/kg/injection, schedule: Q01DX009 (ip), vehicle: saline with Tween-80): 92 % of control
T/C [7]: 98 % of control

CCOC(=O)c1ccc(SC(Cl)(Cl)Cl)cc1
T/C (dose: 100.0 mg/kg/injection, schedule: Q01DX001 (ip), vehicle: alcohol): 98 % of control
T/C (dose: 200.0 mg/kg/injection, schedule: Q01DX001 (ip), vehicle: alcohol): 107 % of control
T/C (dose: 400.0 mg/kg/injection, schedule: Q01DX001 (ip), vehicle: alcohol): 120 % of control

CC12CCCC(O)(CC(=O)C1)C2 (stereo not given)
T/C (dose: 100.0 mg/kg/injection, schedule: Q01DX009 (ip), vehicle: saline): 93 % of control
T/C (dose: 100.0 mg/kg/injection, schedule: Q04DX003 (ip), vehicle: acetone): 95 % of control
T/C (dose: 200.0 mg/kg/injection, schedule: Q01DX009 (ip), vehicle: saline): 95 % of control
T/C (dose: 200.0 mg/kg/injection, schedule: Q04DX003 (ip), vehicle: acetone): 101 % of control
T/C (dose: 400.0 mg/kg/injection, schedule: Q01DX009 (ip), vehicle: saline): 91 % of control
T/C (dose: 400.0 mg/kg/injection, schedule: Q04DX003 (ip), vehicle: acetone): 98 % of control

OCC1OC(OC2CCCCC2)C(O)C(O)C1O (stereo not given)
T/C [2]: 100 % of control
T/C [3]: 96 % of control
T/C [4]: 102 % of control

Cc1ccc(NC(c2cc(Br)ccc2O)P(=O)(c2ccccc2)c2ccccc2)c([N+](=O)[O-])c1 (stereo not given)
T/C [8]: 93 % of control
T/C [9]: 96 % of control
T/C [10]: 96 % of control

O=C(NCCCl)NC1c2ccccc2CCc2ccccc21
T/C [8]: 94 % of control
T/C [11]: 106 % of control
T/C [9]: 88 % of control
T/C (dose: 200.0 mg/kg/injection, schedule: Q04DX003 (ip), vehicle: Klucel (hydroxypropylcellulose) (HPC)): 105 % of control
T/C [10]: 98 % of control
T/C (dose: 400.0 mg/kg/injection, schedule: Q04DX003 (ip), vehicle: Klucel (hydroxypropylcellulose) (HPC)): 90 % of control

O=NN(CCCl)C(=O)NC1CCC(NC(=O)N(CCCl)N=O)CC1 (stereo not given)
T/C (dose: 44.0 mg/kg/injection, schedule: Q01DX001 (ip), vehicle: other): 162 % of control and 286 % of control
T/C (dose: 63.0 mg/kg/injection, schedule: Q01DX001 (ip), vehicle: carboxymethylcellulose (CMC)): 247 % of control
T/C (dose: 67.0 mg/kg/injection, schedule: Q01DX001 (ip), vehicle: other): 168 % of control and 328 % of control
T/C (dose: 82.0 mg/kg/injection, schedule: Q01DX001 (ip), vehicle: carboxymethylcellulose (CMC)): 267 % of control
T/C (dose: 100.0 mg/kg/injection, schedule: Q01DX001 (ip), vehicle: other): 305 % of control and 314 % of control
T/C (dose: 125.0 mg/kg/injection, schedule: Q01DX001 (ip), vehicle: carboxymethylcellulose (CMC)): 310 % of control
T/C (dose: 127.0 mg/kg/injection, schedule: Q01DX001 (ip), vehicle: carboxymethylcellulose (CMC)): 342 % of control
T/C [1]: 268 % of control and 180 % of control
T/C (dose: 187.0 mg/kg/injection, schedule: Q01DX001 (ip), vehicle: carboxymethylcellulose (CMC)): 290 % of control
T/C (dose: 225.0 mg/kg/injection, schedule: Q01DX001 (ip), vehicle: other): 285 % of control and 178 % of control
T/C (dose: 255.0 mg/kg/injection, schedule: Q01DX001 (ip), vehicle: carboxymethylcellulose (CMC)): 344 % of control
T/C (dose: 280.0 mg/kg/injection, schedule: Q01DX001 (ip), vehicle: carboxymethylcellulose (CMC)): 275 % of control
T/C (dose: 337.0 mg/kg/injection, schedule: Q01DX001 (ip), vehicle: other): 306 % of control
T/C (dose: 510.0 mg/kg/injection, schedule: Q01DX001 (ip), vehicle: carboxymethylcellulose (CMC)): 181 % of control

O=C(COc1cccc(Cl)c1Cl)Nc1cccnc1
T/C [5]: 102 % of control
T/C [6]: 96 % of control
T/C [7]: 98 % of control

C[n+]1cc(-c2ccccc2)cc2ccccc21
T/C [12]: 97 % of control

CCCCCCCCCCCCCC(=O)OC1CCC2(C)C(=CCC3C2CCC2(C)C(C(C)CCCC(C)C)CCC32)C1 (stereo not given)
T/C (dose: 50.0 mg/kg/injection, schedule: Q01DX001 (ip), vehicle: Klucel (hydroxypropylcellulose) (HPC)): 96 % of control
T/C (dose: 100.0 mg/kg/injection, schedule: Q01DX001 (ip), vehicle: Klucel (hydroxypropylcellulose) (HPC)): 89 % of control
T/C (dose: 200.0 mg/kg/injection, schedule: Q01DX001 (ip), vehicle: Klucel (hydroxypropylcellulose) (HPC)): 87 % of control and 89 % of control
T/C (dose: 400.0 mg/kg/injection, schedule: Q01DX001 (ip), vehicle: Klucel (hydroxypropylcellulose) (HPC)): 87 % of control

NC1CC=CCC1c1ccc2c(c1)OCO2 (stereo not given)
T/C [12]: 100 % of control
T/C (dose: 150.0 mg/kg/injection, schedule: Q01DX001 (ip), vehicle: saline): 92 % of control

N#CSc1ccc(NN)cc1
T/C (dose: 3.0 mg/kg/injection, schedule: Q01DX009 (ip), vehicle: saline with Tween-80): 97 % of control
T/C (dose: 6.0 mg/kg/injection, schedule: Q01DX009 (ip), vehicle: saline with Tween-80): 90 % of control
T/C (dose: 6.0 mg/kg/injection, schedule: Q04DX004 (ip), vehicle: saline with Tween-80): 100 % of control
T/C (dose: 12.0 mg/kg/injection, schedule: Q01DX009 (ip), vehicle: saline with Tween-80): 95 % of control
T/C (dose: 12.0 mg/kg/injection, schedule: Q04DX004 (ip), vehicle: saline with Tween-80): 98 % of control
T/C (dose: 25.0 mg/kg/injection, schedule: Q01DX009 (ip), vehicle: saline with Tween-80): 96 % of control
T/C (dose: 25.0 mg/kg/injection, schedule: Q04DX003 (ip), vehicle: saline with Tween-80): 93 % of control
T/C (dose: 25.0 mg/kg/injection, schedule: Q04DX004 (ip), vehicle: saline with Tween-80): 102 % of control

CC(C)C(CN)(CCCCN1CCCCC1)c1cccc2ccccc12 (stereo not given)
T/C [5]: 95 % of control

CC(C)(C)OC(=O)C(c1ccccc1)c1ccccc1
T/C (dose: 50.0 mg/kg/injection, schedule: Q01DX001 (ip), vehicle: saline): 106 % of control
T/C (dose: 100.0 mg/kg/injection, schedule: Q01DX001 (ip), vehicle: saline): 89 % of control
T/C (dose: 200.0 mg/kg/injection, schedule: Q01DX001 (ip), vehicle: saline): 106 % of control
T/C (dose: 400.0 mg/kg/injection, schedule: Q01DX001 (ip), vehicle: saline): 89 % of control

NC(=O)C(=O)NCCCN1CC1
T/C (dose: 12.5 mg/kg/injection, schedule: Q04DX003 (ip), vehicle: Klucel (hydroxypropylcellulose) (HPC)): 102 % of control
T/C (dose: 25.0 mg/kg/injection, schedule: Q04DX003 (ip), vehicle: Klucel (hydroxypropylcellulose) (HPC)): 98 % of control
T/C (dose: 50.0 mg/kg/injection, schedule: Q04DX003 (ip), vehicle: Klucel (hydroxypropylcellulose) (HPC)): 106 % of control
T/C [11]: 118 % of control
